# Calls of active or inactive are those of the source.
# What was measured:
# [1] = test system: Streptococcus sp. 'group A'; experiment: growth inhibition of control SK(-) GAS strain, dose response, counter-screen for streptokinase expression inhibitor project, luminescence, kanamycin, BacTiterGlo, confirmation (AID 1900); type: functional, organism-based
# Streptokinase A = target: T1, Streptokinase A (Streptococcus pyogenes serotype M1, UniProt P10520); experiment: S. pyogenes streptokinase expression inhibitors, potency, dose response, plasminogen activation absorbance, OD405 (AID 1914); type: functional, Streptococcus pyogenes M1 GAS;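 also: secreted streptokinase activity via plasminogen activation per viability signal from cell pellet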
# T1 sequence (P10520 whole entry): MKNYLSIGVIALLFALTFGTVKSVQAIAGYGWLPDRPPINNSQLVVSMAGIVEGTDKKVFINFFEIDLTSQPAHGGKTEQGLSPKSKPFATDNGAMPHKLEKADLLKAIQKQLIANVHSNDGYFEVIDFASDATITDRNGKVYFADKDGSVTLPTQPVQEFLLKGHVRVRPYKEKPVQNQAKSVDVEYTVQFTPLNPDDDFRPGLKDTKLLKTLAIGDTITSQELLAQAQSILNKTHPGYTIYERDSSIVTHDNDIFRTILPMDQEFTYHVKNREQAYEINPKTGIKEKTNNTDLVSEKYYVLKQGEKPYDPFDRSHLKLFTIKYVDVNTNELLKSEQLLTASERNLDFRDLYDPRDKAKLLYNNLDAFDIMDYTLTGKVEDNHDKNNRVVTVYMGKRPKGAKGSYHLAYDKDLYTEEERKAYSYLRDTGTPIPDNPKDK
# Streptococcus = experiment: Group A Streptococcus viability loss, dose response, counter-screen for streptokinase expression inhibitor project, luminescence, BacTiterGlo (AID 1915); type: functional, organism-based;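 also: potency for reduction of bacterial viability or growth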
# [2] = P. falciparum Dd2 growth inhibitors, dose response, SYBR Green, cherry-picked samples (AID 1159567); type: functional, cell-based
# Large T antigen = Large T antigen (Simian virus 40, UniProt P03070); type: functional, Betapolyomavirus macacae;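 also: Confirmatory-stage PubChem screen for compounds that inhibit SV40 T antigen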
# Genome polyprotein = Genome polyprotein (dengue virus type 2, UniProt P29990); experiment: Dengue-2 NS5 methyltransferase inhibitors, primary screen, biochemical, confirmation dose response (AID 588689); type: functional
# Nonstructural protein 1 = Nonstructural protein 1 (Influenza A virus, UniProt Q194T2); type: functional, Influenza A virus (A/California/07/2009(H1N1))
# INS1 = experiment: beta cell apoptosis inhibitors, cytokine rescue, dose response, luminescence, retest (AID 449756); type: functional, cell-based; conditions: Rattus norvegicus;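 also: cell death triggered by IL-1 beta plus TNF-alpha plus IFN-gamma mixture; protective hits raise ATP signal compared with cytokine alone wells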
# [3] = Luminescence Cell-Based Dose Response HTS to Identify Activators of Luciferase Translation or Activity in H4 […] Cells. [Related pubchem assays: 1829 (Project Summary), 1814 (Primary HTS)]; type: functional
# H4 = experiment: Luminescence Cell-Based Dose Response HTS to Identify Activators of 5'UTR Stem-Loop Driven Prion Protein mRNA Translation in H4 Neuroglioblastoma Cells. [Related pubchem assays: 1829 (Project Summary), 1814 (Primary HTS)]; type: functional; conditions: Homo sapiens
# [4] = target: T2, Corticotropin-releasing factor receptor 2/Corticotropin-releasing factor-binding protein (Homo sapiens, UniProt P24387+Q13324); experiment: activators of CRF receptor 2 with binding protein – uHTS hits, confirmation (AID 602473); type: functional; conditions: read-out: EC50_Mean
# T2 sequence (Q13324 whole entry): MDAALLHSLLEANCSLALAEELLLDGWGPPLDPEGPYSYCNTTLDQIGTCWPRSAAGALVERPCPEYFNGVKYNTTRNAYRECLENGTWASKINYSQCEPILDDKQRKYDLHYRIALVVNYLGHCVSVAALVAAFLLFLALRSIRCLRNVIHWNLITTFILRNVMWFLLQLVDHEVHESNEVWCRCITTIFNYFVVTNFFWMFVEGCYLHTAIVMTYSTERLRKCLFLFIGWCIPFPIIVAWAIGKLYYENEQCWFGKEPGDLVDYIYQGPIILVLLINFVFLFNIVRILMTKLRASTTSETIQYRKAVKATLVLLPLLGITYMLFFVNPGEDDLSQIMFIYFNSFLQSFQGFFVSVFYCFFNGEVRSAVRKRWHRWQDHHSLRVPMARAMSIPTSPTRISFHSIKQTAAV
# T2 sequence (P24387 whole entry): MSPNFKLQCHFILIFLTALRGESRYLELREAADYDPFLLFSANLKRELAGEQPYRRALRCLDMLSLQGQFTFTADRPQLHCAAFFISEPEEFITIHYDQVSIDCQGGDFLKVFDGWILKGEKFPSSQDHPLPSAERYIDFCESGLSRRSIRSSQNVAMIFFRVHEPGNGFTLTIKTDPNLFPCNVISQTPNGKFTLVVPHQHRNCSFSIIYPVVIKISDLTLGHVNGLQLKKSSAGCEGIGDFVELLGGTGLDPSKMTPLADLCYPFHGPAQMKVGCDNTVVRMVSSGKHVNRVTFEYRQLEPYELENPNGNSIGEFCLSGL
# [5] = THP-1 cell cytotoxicity, dose response, cytotoxicity control for Vif-APOBEC3G degradation inhibitor project, THP-1 cells (AID 1117359); type: functional; conditions: Human immunodeficiency virus 1, THP-1
# cells [6] = type: functional, cell-based
# cells [7] = type: functional, cell-based; remark: listed apart in the source
# Protein skinhead-1 = target: T3, Protein skinhead-1 (Caenorhabditis elegans, UniProt P34707); type: functional
# T3 sequence (P34707 whole entry): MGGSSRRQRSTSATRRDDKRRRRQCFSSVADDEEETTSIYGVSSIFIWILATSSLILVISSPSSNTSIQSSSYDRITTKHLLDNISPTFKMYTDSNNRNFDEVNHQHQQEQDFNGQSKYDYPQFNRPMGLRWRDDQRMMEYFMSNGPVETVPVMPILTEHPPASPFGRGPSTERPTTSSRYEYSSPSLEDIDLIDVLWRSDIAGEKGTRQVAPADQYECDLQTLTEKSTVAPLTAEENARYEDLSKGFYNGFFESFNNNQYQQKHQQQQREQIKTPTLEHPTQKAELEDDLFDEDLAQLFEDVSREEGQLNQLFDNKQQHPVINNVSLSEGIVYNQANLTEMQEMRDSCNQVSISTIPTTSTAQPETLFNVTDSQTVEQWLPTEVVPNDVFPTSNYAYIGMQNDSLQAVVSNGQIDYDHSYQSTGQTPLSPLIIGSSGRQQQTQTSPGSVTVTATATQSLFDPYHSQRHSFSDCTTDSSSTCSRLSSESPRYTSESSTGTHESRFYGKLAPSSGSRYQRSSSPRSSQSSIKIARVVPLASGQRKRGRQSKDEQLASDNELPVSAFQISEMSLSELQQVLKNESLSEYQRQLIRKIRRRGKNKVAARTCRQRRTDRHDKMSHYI
# Paired box protein Pax-8 = Paired box protein Pax-8 (Homo sapiens, UniProt Q06710); experiment: inhibitors of PAX8-driven TPO luciferase reporter, dose response, RMG-I cells, cherry-pick (AID 687027); type: functional, cell-based;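 also: luciferase reporter driven by Pax8 target thyroperoxidase promoter measured by SteadyGlo luminescence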
# [8] = HEp-2 cell cytotoxicity, dose response, cytotoxicity control for RSV inhibitor project, HTS (AID 2410); type: functional; conditions: human respiratory syncytial virus
# [9] = target: T4, Rac GTPase-activating protein 1 (Homo sapiens, UniProt Q9H0H5); experiment: MgcRacGAP GTPase-activating activity inhibitors, confirmation, biochemical, ADP Hunter fluorescence, primary and confirmatory (AID 624330); type: functional
# T4 sequence (Q9H0H5 whole entry): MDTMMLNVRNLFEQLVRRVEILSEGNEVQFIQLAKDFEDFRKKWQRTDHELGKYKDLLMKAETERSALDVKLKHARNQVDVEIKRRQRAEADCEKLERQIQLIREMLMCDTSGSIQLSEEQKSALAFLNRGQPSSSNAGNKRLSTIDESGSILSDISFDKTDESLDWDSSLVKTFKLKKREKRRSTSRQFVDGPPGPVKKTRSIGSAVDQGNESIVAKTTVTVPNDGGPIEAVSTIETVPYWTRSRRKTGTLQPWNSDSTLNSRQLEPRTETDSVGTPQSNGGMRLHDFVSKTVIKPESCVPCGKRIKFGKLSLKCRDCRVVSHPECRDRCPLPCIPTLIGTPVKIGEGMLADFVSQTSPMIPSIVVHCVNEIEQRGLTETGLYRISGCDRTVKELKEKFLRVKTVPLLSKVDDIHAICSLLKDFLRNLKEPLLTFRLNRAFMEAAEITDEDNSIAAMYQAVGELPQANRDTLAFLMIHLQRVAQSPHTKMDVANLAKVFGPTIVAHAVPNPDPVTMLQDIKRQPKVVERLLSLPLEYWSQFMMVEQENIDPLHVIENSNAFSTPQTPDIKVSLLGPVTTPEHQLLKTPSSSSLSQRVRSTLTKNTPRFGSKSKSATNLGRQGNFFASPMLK
# Large T antigen, sequence (P03070 whole entry): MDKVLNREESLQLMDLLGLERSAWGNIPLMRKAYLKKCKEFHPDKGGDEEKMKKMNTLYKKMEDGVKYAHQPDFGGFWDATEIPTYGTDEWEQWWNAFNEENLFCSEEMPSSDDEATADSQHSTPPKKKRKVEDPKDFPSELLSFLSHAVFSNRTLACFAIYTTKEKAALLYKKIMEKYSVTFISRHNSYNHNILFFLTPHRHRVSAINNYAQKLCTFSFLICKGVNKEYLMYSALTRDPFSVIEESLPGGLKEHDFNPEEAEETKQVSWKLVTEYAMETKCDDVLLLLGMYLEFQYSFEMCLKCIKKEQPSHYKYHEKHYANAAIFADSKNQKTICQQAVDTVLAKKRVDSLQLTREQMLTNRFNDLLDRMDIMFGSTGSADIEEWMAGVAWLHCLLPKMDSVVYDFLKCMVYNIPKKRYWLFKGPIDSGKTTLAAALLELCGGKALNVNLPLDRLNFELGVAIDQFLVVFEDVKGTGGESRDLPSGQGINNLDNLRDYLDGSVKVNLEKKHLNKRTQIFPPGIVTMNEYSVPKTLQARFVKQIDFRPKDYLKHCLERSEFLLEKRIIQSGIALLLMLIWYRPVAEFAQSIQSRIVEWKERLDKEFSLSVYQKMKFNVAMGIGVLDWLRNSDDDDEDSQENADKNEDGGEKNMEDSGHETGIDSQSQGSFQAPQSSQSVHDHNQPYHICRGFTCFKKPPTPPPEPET
# Nonstructural protein 1, sequence (Q194T2 whole entry): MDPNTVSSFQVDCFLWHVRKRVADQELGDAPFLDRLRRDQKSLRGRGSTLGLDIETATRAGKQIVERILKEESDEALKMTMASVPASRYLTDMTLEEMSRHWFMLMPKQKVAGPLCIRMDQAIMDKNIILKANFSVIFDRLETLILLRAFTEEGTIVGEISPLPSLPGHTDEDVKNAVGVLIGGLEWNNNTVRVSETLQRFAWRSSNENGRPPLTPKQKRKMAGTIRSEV
# Genome polyprotein, sequence (P29990 2492-3391 limits assumed): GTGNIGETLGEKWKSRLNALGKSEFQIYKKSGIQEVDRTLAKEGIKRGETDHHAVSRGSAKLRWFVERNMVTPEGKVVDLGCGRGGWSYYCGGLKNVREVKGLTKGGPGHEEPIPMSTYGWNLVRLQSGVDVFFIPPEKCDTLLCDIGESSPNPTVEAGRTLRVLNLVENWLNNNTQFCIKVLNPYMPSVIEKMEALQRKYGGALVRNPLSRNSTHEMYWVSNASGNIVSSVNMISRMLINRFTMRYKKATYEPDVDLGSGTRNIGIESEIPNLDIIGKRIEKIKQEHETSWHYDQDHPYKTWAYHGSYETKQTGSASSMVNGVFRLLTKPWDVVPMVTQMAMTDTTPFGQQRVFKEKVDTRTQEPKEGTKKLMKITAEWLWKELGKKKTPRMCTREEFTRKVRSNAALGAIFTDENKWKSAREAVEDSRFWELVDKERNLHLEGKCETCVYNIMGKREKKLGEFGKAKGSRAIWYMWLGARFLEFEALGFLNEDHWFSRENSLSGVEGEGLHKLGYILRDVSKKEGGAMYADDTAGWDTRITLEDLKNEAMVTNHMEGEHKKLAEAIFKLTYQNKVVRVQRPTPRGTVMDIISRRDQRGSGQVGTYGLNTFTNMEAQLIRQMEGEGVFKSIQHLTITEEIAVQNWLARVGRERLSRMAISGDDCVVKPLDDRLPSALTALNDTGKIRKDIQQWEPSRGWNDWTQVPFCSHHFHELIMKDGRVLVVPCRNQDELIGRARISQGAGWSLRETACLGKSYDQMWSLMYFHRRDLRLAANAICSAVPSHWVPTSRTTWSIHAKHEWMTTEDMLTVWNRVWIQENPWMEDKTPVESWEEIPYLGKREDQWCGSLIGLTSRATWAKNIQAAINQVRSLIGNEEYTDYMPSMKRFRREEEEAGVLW
# Paired box protein Pax-8, sequence (Q06710 whole entry): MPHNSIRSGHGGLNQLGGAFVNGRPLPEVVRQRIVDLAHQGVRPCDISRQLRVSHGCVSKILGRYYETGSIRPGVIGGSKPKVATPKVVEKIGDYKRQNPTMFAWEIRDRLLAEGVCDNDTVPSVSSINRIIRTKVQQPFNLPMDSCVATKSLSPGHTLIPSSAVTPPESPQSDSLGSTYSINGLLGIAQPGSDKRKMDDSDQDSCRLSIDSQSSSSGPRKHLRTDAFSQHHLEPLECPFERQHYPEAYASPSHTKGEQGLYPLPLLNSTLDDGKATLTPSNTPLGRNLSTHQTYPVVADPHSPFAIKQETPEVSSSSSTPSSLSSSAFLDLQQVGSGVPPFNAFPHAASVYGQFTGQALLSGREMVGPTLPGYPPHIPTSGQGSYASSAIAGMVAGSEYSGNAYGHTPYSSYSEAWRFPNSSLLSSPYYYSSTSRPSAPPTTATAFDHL
structure (smiles),measurement,setting,value
CCC(Oc1ccccc1)C(=O)Nc1ccccc1N1CCCCC1 (stereo not drawn),EC50,[1],10.3 µM (active)
same,EC50,Streptokinase A,15.8 µM (active)
same,EC50,Streptococcus,19.9 µM (active)
COc1ccc(-c2ccc3c(c2)[C@H]2[C@H](CCN2Cc2ccncc2)[C@@H](CO)N3)cc1,AC50,[2],7.26 µM (active)
CC(=O)Nc1ccccc1O,IC50,Large T antigen,6.2 µM (active)
O=C1NN(c2cccc(Br)c2)C(=O)/C1=C\c1ccc(O)cc1,IC50,Large T antigen,17.2 µM (active)
same,IC50,Genome polyprotein,> 100 µM (active)
CN1/C(=C\C(=S)NC(=O)c2ccccc2Cl)C(C)(C)c2ccccc21,IC50,Nonstructural protein 1,29.3 µM (active)
same,AC50,INS1,8.03 µM (active)
Oc1ccccc1C=NCCN1CCN(CCN=Cc2ccccc2O)C1c1ccccc1O (stereo not drawn),IC50,Nonstructural protein 1,1.75 µM (active)
COc1ccc2nc(NC3=NCCN3)sc2c1,EC50,[3],0.778 µM (active)
same,EC50,H4,2.01 µM (active)
Cc1cc(C=C(C#N)C#N)ccc1N1CCCC1,EC50,[4],6.3 µM (active)
CC1C/C(=C/c2ccco2)C(=O)/C(=C/c2ccco2)C1 (stereo not drawn),CC50,[5],> 40 µM (active)
CCOc1ccccc1NC(=O)CSc1ncnc2c1oc1ccccc12,EC50,cells [6],> 350 µM (not active)
same,EC50,cells [7],> 350 µM (not active)
same,IC50,Protein skinhead-1,> 100 µM (inactive)
Cc1ccsc1C(=O)N/N=C/c1ccc([N+](=O)[O-])cc1,EC50,cells [6],> 350 µM (not active)
same,EC50,cells [7],5.99 µM (active)
CCCCCCc1cc2cc(C(=O)NC)c(=N)oc2cc1O,EC50,[4],3.06 µM (active)
COc1cc(C2c3cc4c(c(O)c3CC3COC(=O)C32)OCO4)cc(OC)c1OC (stereo not drawn),AC50,Paired box protein Pax-8,< 0.26 µM (active)
C=CCN1C(=O)/C(=C/c2ccc(O)cc2)S/C1=N/c1nccs1,CC50,[8],22.4 µM (active)
same,EC50,[4],> 53 µM (inactive)
O=C(NNC(=O)c1ccccc1Br)c1ccc(Cl)cc1,EC50,cells [6],> 350 µM (not active)
same,EC50,cells [7],> 350 µM (not active)
COc1ccc2c3c([nH]c2c1)[C@@H](CO)N(C(=O)C1CCCCC1)CC31CCN(Cc2nccs2)CC1,AC50,[2],4.44 µM (active)
CCc1c(C)nc(N)nc1N1N=C1SC(C(C)=O)C(C)=O,IC50,Large T antigen,95.9 µM (active)
same,IC50,[9],12.5 µM (active)
